Results from patent publication US20080199520A1, “S-Adenosyl-L-Methionine for Regulating Behavioral Disorders in Pets” (VIRBAC, priority 2005, published 2008).
Where two headings read alike, the source gives them in different places.

Key:
[1] = tested on: dogs presenting signs of fear; assay: Effect of the nutritional supplement on behavior and physical signs associated with fear in dogs (Example 2); type: in vivo; details: 7.5 mg SAMe/kg/day oral for one month, then 2.5 mg/kg/day for two months; sum of 6 parameter scores (FIG. 4)
Protocol: Another study was conducted to show the effect of administering to dogs a nutritional supplement based on S-adenosyl-L-methionine on the behavior and physical signs associated with fear.
The nutritional supplement used in this test consisted of tablets containing 10, 50 or 100 mg of SAMe. It was administered to the animals at a loading dose of 7.5 mg of SAMe per kg of body weight per day in a single daily oral administration for one month, and then at a maintenance dose of 2.5 mg of SAMe per kg of body weight per day in a single daily oral administration for the next two months.
15 dogs aged between 6 months and 15 years are selected with no restrictions on breed, sex or weight. In the two months preceding inclusion in the study, all the dogs presented signs of fear associated either with inhibited behavior or, conversely, with exaggerated responses. This type of problem had to have been identified in the dog for more than two months. The “overall fear score” (sum of the individual scores for the various parameters monitored) recorded at the start of the experiment had to be greater than 7, the parameters observed being as follows: • Pupil dilation. Score: 0=normal, 1=increased, 2=complete. • Trembling. Score: 0=none, 1=slight, 2=pronounced. • Exploration. […]

[2] = tested on: old dogs with behavioral disorders; assay: Randomized double-blind placebo-controlled study on reduced mental capacity of old dogs (Example 4); type: in vivo
Protocol: These behavioral disorders manifested themselves as follows: disorientation, decrease in activity, decrease in social interactions, changes in activity-sleep cycle, lack of cleanliness, anxiety.
The dogs were randomly assigned to one of two treatment groups: SAMe or placebo. […]
The dogs were examined by an investigator at the start of the experiment and then at 30 days and 60 days.
The examinations looked at the various behavioral disorders of the animals, which were evaluated on a scale of 0 to 3 according to their intensity, and all the scores were added together to give a “standardized geriatric behavior score” reflecting the severity of the problems observed.

[3] = tested on: old dogs presenting behavioral disorders associated with CDS; assay: Study of SAMe in old dogs presenting behavioral disorders associated with CDS (Example 1); type: in vivo; details: for dogs showing an improvement in activity level (owners) / mean activity level of the animals as observed by a veterinarian: at least 2.5 mg SAMe per kg per day
Protocol: A study was conducted to show the efficacy of S-adenosyl-L-methionine in old dogs presenting behavioral disorders associated with CDS.
S-adenosyl-L-methionine was administered in the form of tablets containing 10, 50 or 100 mg of SAMe.
15 dogs more than 7 years old were selected with no restrictions on breed, sex or weight. All the dogs presented well-established cognitive disorders associated with CDS (cleanliness problems, disorders of activity-sleep cycle, decrease in activity) which had been observed by their owners and by veterinarians.
Dogs presenting diseases requiring medical treatment were excluded from the study, as were dogs which had been treated with psychotropic drugs in the month preceding the study. Also, to avoid biases in the observations, heart, kidney and liver treatments and psychoactive drugs were not permitted during the study.
During the study the dogs received at least the equivalent of 2.5 mg of SAMe per kg of body weight per day in a single daily administration over a period of 4 months.
The dogs were examined by a veterinarian at the start of the experiment and then every month. The blood parameters were analyzed at each veterinary examination.
Experiment number 1: Measurement of the activity level of the dogs.
Experiment number 2: Measurement of the effect on the sleeping time of the dogs.
Experiment number 3: Evaluation of the effect on the anxiety of the dogs.

[4] = tested on: old cats with cognitive disorders
Protocol: A study was conducted to show the effects of S-adenosyl-L-methionine on age-related behavioral disorders in cats.
SAMe was administered in the form of tablets containing 90 mg of an S-adenosyl-L-methionine salt (the 1,4-butanedisulfonate).
The tablets were given once a day for a period of 3 consecutive months to comply with the following doses: • Mean dose: 18 (±3.4) mg/kg/d; minimum dose: 12.9 mg/kg/d; maximum dose: 22.5 mg/kg/d.
The blood parameters were analyzed by the veterinarian every month. The owners were also asked to give their opinion on the changes observed in the behavior of their pets.

[5] = after two months of treatment, tosylate salt, 18.5 mg/kg/d
[6] = response to the treatment at D60, n = 17, tosylate salt, 18.5 mg/kg/d
[7] = 3 months, 1,4-butanedisulfonate salt, mean 18 mg/kg/d (FIG. 6)

C[S@@+](CC[C@H](N)C(=O)O)C[C@H]1O[C@@H](n2cnc3c(N)ncnc32)[C@H](O)[C@@H]1O [SAMe, 5′-[[3S-amino-3-carboxypropyl]methyl-(S)-sulfonio]-5′-deoxyadenosine]
overall fear score [1]: decreases very substantially | average improvement in terms of activity [2, 5]: 57.1% | average improvement in terms of learning behavior, more particularly cleanliness [2, 5]: 57.1% | average improvement in terms of reactivity [2, 5]: 59.5% | owners' impression of their animals under treatment ([2]; end of the study, majority of the owners): more active and reactive | % of dogs, Good response [2, 6]: 41.2% | % of dogs, No response [2, 6]: 35.3% | % of dogs, Poor response [2, 6]: 23.5% | No. of dogs, Good response [2, 6]: 7 | No. of dogs, No response [2, 6]: 6 | No. of dogs, Poor response [2, 6]: 4 | reduction of the standardized geriatric behavior score ([2]; tosylate salt tablets once a day, average 18.5 mg/kg/d, versus placebo over the study period (FIG. 11)): more significant with SAMe than with placebo | dogs showing an improvement in activity level (owners) ([3]; after one month): more than 70% | mean activity level of the animals as observed by a veterinarian ([3]; after one month, tablets, single daily administration, score -1 reduced, 0 unchanged, 1 increased (FIG. 1)): increased significantly | mean activity level of the animals as observed by a veterinarian ([3]; after the first month, up to 4 months): remained above the animals' normal activity | sleeping time of the animals ([3]; daily for 4 months, variations decreased considerably after two months (FIG. 2)): tended to normalize | efficacy as considered by the owners ([3]; end of the study (4 months)): very good | dogs showing an improvement in activity level (owners) ([3]; first two weeks of the treatment): 38% | anxiety of the animals ([3]; throughout the 4-month period, score 0 none to 3 permanent (FIG. 3)): decreased regularly | cases with improved elimination behavior [4, 7]: 40% | cats with improved elimination behavior (number) [4, 7]: 2 out of 5 | cats exhibiting ambulation or vocalization periods ([4]; 15 days after the start of the experiment (70% at the start)): 30% | play activity of the cats ([4]; after one month (FIG. 8)): promising net effect | exploratory behavior of the cats ([4]; as from 15 days of treatment (FIG. 7)): perceptible activating effect | cats exhibiting ambulation or vocalization periods ([4]; as from the second month (70% at the start)): no cat | cats with a positive result on play activity ([4]; at 2 months (FIG. 8)): 7 out of 10 | interactions/recognition (owners, other animals) ([4]; cats which initially presented an interaction deficit (FIG. 9)): responded rather well | interactions/recognition (owners, other animals) ([4]; cats which manifested hyperattachment (FIG. 9)): more variable | periods of waking with a start or nightmares ([4]; during the 3-month study, 1,4-butanedisulfonate salt, mean 18 mg/kg/d): No cat | efficacy as considered by the owners ([4]; end of the study (3 months)): very good | cats with a return to a normal day-night cycle ([4]; in one month, 1,4-butanedisulfonate salt tablets, mean dose 18 mg/kg/d once a day (FIG. 5)): 7 out of 10 | cats in which aggressiveness or irritability was eliminated (number) ([4]; in three months (FIG. 10)): 4 out of 5 | manifestations of aggressiveness or irritability eliminated ([4]; in three months, encountered in 50% of the cats (FIG. 10)): 80% | side effects ([4]; in vivo): without causing side effects
